Experimental data from paper PMC11247627, “Evaluation of Antibacterial Functionalized Dihydropyrimidine Photoaffinity Probes Toward Mechanism of Action Studies” (ACS Medicinal Chemistry Letters, 2024).
≈ marks a conversion by molar mass, not a printed value. Where “and” joins values, the source holds several entries; their conditions need not be identical. Equal entries are not always repeated. Entries after “also recorded” stand apart in the source; their conditions may differ.

Assays:
[1] = system: Staphylococcus aureus ATCC 12600; assay: Antibacterial broth microdilution assay (MIC), methicillin-sensitive S. aureus ATCC 12600; assay type: cell-based; settings: Staphylococcus aureus, ATCC12600; amount inhibiting >95% of growth (A600), 18 h; suffix 'I' = partial growth inhibition at the value, >95% at higher concentrations; read-out: MIC ATCC 12600
Description: (§1) These 24 DHP analogues were then screened for inhibition of Staphylococcus aureus growth using microdilution assays. Growth inhibition was examined in methicillin-sensitive S. aureus (ATCC 12600) and two strains of MRSA (ATCC 33591 and ATCC 43300). Antibiotic controls were included in the screen, including carbenicillin, erythromycin, gentamycin, trimethoprim, and vancomycin, and minimum inhibitory concentrations (MICs) were determined for each compound, which were defined as the concentration required to inhibit >95% of bacterial growth (Table 1).
(§2) Antibacterial Microdilution Assay (MIC Determination)
(§3) 1240 The MIC determination assays were performed in a BSL-2 laboratory with appropriate security and biosafety measures. The MICs were determined using a broth microdilution assay closely following the guidelines of the Clinical and Laboratories Standards Institute (CLSI). MICs were determined in duplicate for two biological replicates using 2-fold serial dilutions of test compounds or commercial antibiotics in cation-adjusted Mueller-Hinton broth. The central 60 wells of 96-well plates were 1245 prepared with the compound of interest at the indicated concentration, where 2 µL of the compound in DMSO were added prior to the addition of the culture. Overnight cultures of the different Staphylococcus aureus strains were diluted to provide an initial inoculum of approximately 5 X 10 5 CFU/mL that was delivered to each well in 198 µL of culture (final DMSO concentration of ~1%). Initial inoculum concentrations were verified by plating to count CFU/mL. Each plate was equipped with 1250 experimental controls for full growth (6 wells) and full growth inhibition (6 wells), and all control wells were in the presence of 1% DMSO. The outer 36 wells were filled with 200 µL of culture each to prevent growth effects on the interior 60 wells. The plates were incubated at 37 °C for 18 hours, at which time they were removed from the incubator and were allowed to equilibrate to room temperature for 30 minutes. Absorbance of each well at 600 nm was then read using a microplate reader to 1255 determine the MIC, and visual confirmation of growth inhibition was also performed. If variation was seen in the experimental values, the highest value of two independent trials was listed.

[2] = system: Staphylococcus aureus ATCC 33591 (MRSA); assay: Antibacterial broth microdilution assay (MIC), MRSA ATCC 33591; assay type: cell-based; settings: Staphylococcus aureus; amount inhibiting >95% of growth (A600), 18 h; suffix 'I' = partial growth inhibition at the value, >95% at higher concentrations; read-out: MIC ATCC 33591
Description: as §1, §2, §3

[3] = system: Staphylococcus aureus ATCC 43300 (MRSA); assay: Antibacterial broth microdilution assay (MIC), MRSA ATCC 43300; assay type: cell-based; settings: amount inhibiting >95% of growth (A600), 18 h, suffix 'I' = partial growth inhibition at the value, >95% at higher concentrations; for MIC: Staphylococcus aureus, read-out: MIC ATCC 43300
Description: as §1, §2, §3

[4] = system: red blood cells (defibrinated sheep blood); assay: Hemolysis assay (red blood cell lysis); assay type: cell-based; settings: concentration producing >20% hemolysis of red blood cells, 1 h, 37 C
Description: (§4) 1260 1.5 mL of mechanically defibrinated sheep blood (Hemostat Labs: DSB100) was placed in a microcentrifuge tube and was centrifuged at 10,000 rpm for ten minutes. Following the removal of the supernatant, the cells were resuspended in 1 mL of phosphate-buffered saline (PBS). This process was repeated two more times. The final suspension was diluted ten-fold with PBS and was aliquoted into microcentrifuge tubes containing the compounds which were previously serial diluted in PBS. TritonX 1265 (1% by volume) served as a positive control, while sterile PBS served as a negative control. All samples were incubated at 37 °C and shaken at 200 rpm for 1 hour. After the 1 hour, the samples were centrifuged at 10,000 rpm for 5 minutes and the absorbance of the supernatant was measured via UV spectroscopy at a 540 nm wavelength.

[5] = MTT cytotoxicity assay, HEK293 viability; assay type: cell-based; settings: human, HEK293 cells, 24 h treatment
Description: After determining that some of our compounds were quite potent for the inhibition of bacterial growth, we next turned toward assessing broader cytotoxicity trends. […] Further, our previously reported derivatives were also screened for red blood cell (RBC) hemolysis, and the assay indicated a lack of RBC lysis at the highest concentrations tested for all compounds (64 μg/mL).[6] […] This indicates it may have secondary mechanisms of cytotoxicity via nonspecific membrane rupturing activity, albeit, at a much higher concentration than its 2 μg/mL MIC. Next, we examined the compounds’ ability to decrease the viability of an immortalized mammalian cell line (HEK293) using a colorimetric MTT assay.[34] To our surprise, all of the compounds screened produced relatively potent cytotoxicity against this cell line. […] We screened a dihydropyrimidine where the guanidine was substituted with a urea (traditional Biginelli reaction derived), and this compound had no bacterial inhibition but continued to have significant mammalian cytotoxicity, further decoupling the antibacterial activity from mammalian cytotoxicity in these cases. Future studies involving the photoaffinity probes will examine the mechanism by which our compounds exert their growth-inhibiting effects in both bacterial and mammalian cells.
Mammalian cytotoxicity was evaluated using a commercially available MTT Cell proliferation assay 1275 (ATCC 30-1010K; Manassas, VA) following the included protocol. Briefly, Human Embryonic Kidney 293 (HEK-293; ATCC CRL-1353) cells were seeded onto 96 well plates (Nunclon Delta; ThermoFisher 167008; Waltham, MA) coated with Poly-D-Lysine (Thermofisher A3890401) at a density of […] cells per well in 80 µL of Eagle's Minimum Essential Medium (EMEM; ATCC 30-2003) with 10% Fetal Bovine Serum (ATCC 30-2021). Cells were incubated at 37 °C in a 5% CO2 atmosphere and allowed to 1280 adhere overnight, and then treated for 24 h with 20 µL of drugs dissolved in PBS with 0.5% DMSO, at concentrations ranging from 1×10^-4 M to 1×10^-9 M. Following treatment, 10 µL of MTT reagent was added to each well and allowed to incubate at 37 °C for 4 h. Then, 100 μL of detergent reagent was added to all wells, and they were stored at room temperature in the dark for 2 h. Absorbance was then read using a multi-mode spectrophotometer (Spectramax i3X; San Jose, CA) at a wavelength of 570 1285 nm. Raw values were normalized to a 0-100% scale using the maximum and minimum responses. To generate dose-response curves and IC50 values, normalized data were plotted against the log of the drug concentrations and fit to nonlinear curve [log(inhibitor) vs. response – variable slope (four parameters)] using GraphPad Prism version 7.05 (GraphPad Software; San Diego, CA).

[6] = system: Staphylococcus aureus; assay: S. aureus growth inhibition (all three strains or strain not specified); assay type: cell-based; settings: for MIC: Staphylococcus aureus, all three S. aureus strains or strain not specified, read-out: concentration inhibiting S. aureus growth (MIC); for antibacterial activity (in words): S. aureus growth
Description: as §1, §2, §3

[7] = Hemolysis assay (red blood cell lysis); assay type: cell-based, sheep; settings: sheep, washed red blood cells from defibrinated sheep blood; 64 μg/mL; read-out: hemolysis (RBC lysis) at 64 μg/mL
Description: as §4

[8] = target: T1, recombinant Staphylococcus aureus DHFR (SaDHFR) (Staphylococcus aureus, UniProt P0A017); assay: Inhibition of recombinant S. aureus DHFR; assay type: biochemical; settings: in vitro
T1 construct: made in house
T1 sequence (P0A017 whole entry): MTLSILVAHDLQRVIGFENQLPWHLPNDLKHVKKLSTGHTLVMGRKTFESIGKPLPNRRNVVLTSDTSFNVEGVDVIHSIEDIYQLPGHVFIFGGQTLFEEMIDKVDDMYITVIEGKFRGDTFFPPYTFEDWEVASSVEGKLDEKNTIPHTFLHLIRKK
Description: To explore this, oxidization of DHP 7a to the pyrimidine 8a was performed using phenyliodine diacetate (PIDA) (Figure 3a),[12]−[14] as this oxidation state mimics FDA approved antimicrobial DHFR inhibitors trimethoprim 1 (Figure 1a) and pyrimethamine 9 (Figure 3b).

Structure (SMILES) | MIC [1] [µg/mL] | MIC [2] [µg/mL] | MIC [3] [µg/mL] | lysis20 [4] [µg/mL] | IC50 at 24 h [5] | MIC [6] [µg/mL] | MIC ATCC 43300 [3] [µg/mL] | hemolysis at 1 h, 64 μg/mL [7] [%] | DHFR inhibition (in words) [8] | antibacterial activity (in words) [6]
CCOC(=O)C1=C(c2ccccc2)NC(N)=NC1c1cccc(Cl)c1 (stereo not drawn) [6i] | 32 (≈ 89.9 µM) | 32 (≈ 89.9 µM) | 32 (≈ 89.9 µM) | >64 | 18 µM and 5.8 µg/mL | – | – | – | – | –
CCOC(=O)C1=C(c2ccccc2)NC(N)=NC1c1cc(Cl)cc(Cl)c1 (stereo not drawn) [6j] | 8 (≈ 20.5 µM) | – | 8 (≈ 20.5 µM) | >64 | 11 µM and 3.5 µg/mL | – | – | – | – | –
CCOC(=O)C1=C(c2ccccc2)NC(N)=NC1c1ccc(C(C)C)cc1 (stereo not drawn) [6r] | – | – | 8 (≈ 22 µM) | >64 | 9.5 µM and 3.1 µg/mL | 8 (≈ 22 µM) | – | – | – | –
CCOC(=O)C1=C(c2ccccc2)NC(N)=NC1c1ccccc1OC (stereo not drawn) [6s] | > 64 | > 64 | > 64 | >64 | 87 µM and 28 µg/mL | – | >64 | – | – | –
CCOC(=O)C1=C(c2ccccc2)NC(N)=NC1c1ccc(OC)cc1 (stereo not drawn) [6u] | – | > 64 | > 64 | >64 | 14 µM and 4.5 µg/mL | > 64 | – | – | – | –
CCOC(=O)C1=C(c2ccccc2)NC(N)=NC1c1ccc(CC(C)C)cc1 (stereo not drawn) [7a] | 4 (≈ 10.6 µM) | – | 4 (≈ 10.6 µM) | >64 | 7.9 µM and 2.5 µg/mL | 4 (≈ 10.6 µM) | – | – | – | –
CCOC(=O)C1=C(c2ccccc2)NC(N)=NC1c1ccc(-c2ccccc2)cc1 (stereo not drawn) [7b] | 4 (≈ 10.1 µM) | 4 (≈ 10.1 µM) | 4 (≈ 10.1 µM) | >64 | 9.4 µM and 3 µg/mL | 4 (≈ 10.1 µM) | – | – | – | –
CCOC(=O)C1=C(CC)NC(N)=NC1c1ccc(CC(C)C)cc1 (stereo not drawn) [7c] | – | 8 (≈ 24.3 µM) | 4 (≈ 12.1 µM) | >64 | 11 µM and 3.5 µg/mL | – | – | – | – | –
CCOC(=O)C1=C(c2cccc(C(F)(F)F)c2)NC(N)=NC1c1cc(Cl)cc(Cl)c1 (stereo not drawn) [7e] | 4 (≈ 8.73 µM) | 4 (≈ 8.73 µM) | 4 (≈ 8.73 µM) | >64 | 9.9 µM and 3.2 µg/mL | – | – | – | – | –
CCOC(=O)C1=C(c2cccc(C(F)(F)F)c2)NC(N)=NC1c1ccc(CC(C)C)cc1 (stereo not drawn) [7f] | 2 (≈ 4.49 µM) | 2 (≈ 4.49 µM) | 2 (≈ 4.49 µM) | 64 | 1.9 µM and 0.61 µg/mL | 2 (≈ 4.49 µM) | – | > 20 | – | –
CCOC(=O)C1=C(c2cccc(F)c2)NC(N)=NC1c1cc(Cl)cc(Cl)c1 (stereo not drawn) [7g] | 8 (≈ 19.6 µM) | 8 (≈ 19.6 µM) | 8 (≈ 19.6 µM) | >64 | 14 µM and 4.5 µg/mL | – | – | – | – | –
CCOC(=O)C1=C(c2cccc(F)c2)NC(N)=NC1c1ccc(CC(C)C)cc1 (stereo not drawn) [7h] | 4 (≈ 10.1 µM) | 4 (≈ 10.1 µM) | 4 (≈ 10.1 µM) | >64 | 4.4 µM and 1.4 µg/mL | – | – | – | – | –
CCOC(=O)C1=C(c2cccc(C)c2)NC(N)=NC1c1cc(Cl)cc(Cl)c1 (stereo not drawn) [7i] | 8 (≈ 19.8 µM) | 8 (≈ 19.8 µM) | 8 (≈ 19.8 µM) | >64 | 16 µM and 5.1 µg/mL | – | – | – | – | –
CCOC(=O)c1c(-c2ccccc2)nc(N)nc1-c1ccc(CC(C)C)cc1 [8a] | – | – | – | – | – | > 64 | – | – | no inhibition was observed; also recorded: lacked antibacterial activity and DHFR inhibition | lacked antibacterial activity
CCOC(=O)C1=C(c2ccccc2)NC(N)=NC1c1ccccc1 (stereo not drawn) [compound 6] | > 64 | > 64 | > 64 | >64 | 18 µM and 5.8 µg/mL | > 64 | >64 | – | – | –
CCOC(=O)c1c(C)nc(N)nc1-c1cc(Cl)cc(Cl)c1 [compound 10] | – | – | – | – | – | – | – | – | lacked antibacterial activity and DHFR inhibition | lost all antibacterial activity; also recorded: lacked antibacterial activity
